From the supplement of paper PMC3974653
Counter-ions that a name gives are not always drawn.

Test system: MTT (mouse pheochromocytoma)
Assay: IC50 of cell viability (ATP content)
Details: (24 or 48 h)
Procedure, shortened: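 MTT mouse pheochromocytoma cells in white 1536-well plates were treated for 24 or 48 hrs with library compounds at 8 final concentrations from 0.5 nM to 46 µM. ATP content was measured with CellTiter-Glo luminescence, using positive-control wells as 100% and DMSO wells as 0%. IC50 came from a four-parameter logistic fit.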

## COC(=O)[C@@H]1[C@H]2C[C@H]3c4[nH]c5cc(OC)ccc5c4CCN3C[C@@H]2C[C@@H](OC(=O)/C=C\c2cc(OC)c(OC)c(OC)c2)[C@@H]1OC [Rescinnamin]
  IC50 of cell viability: > 46 µM

## COC(=O)[C@H]1[C@H]2C[C@@H]3c4[nH]c5cc(OC)ccc5c4CCN3C[C@H]2C[C@@H](OC(=O)c2cc(OC)c(OC)c(OC)c2)[C@@H]1OC [Reserpine]
  IC50 of cell viability: > 46 µM

## Oc1cccc(O)c1 [Resorcinol]
  IC50 of cell viability: > 46 µM

## Oc1ccc(/C=C\c2cc(O)cc(O)c2)cc1 [Resveratrol]
  IC50 of cell viability: > 46 µM

## CC1=C(/C=C/C(C)=C/C=C/C(C)=C/CO)C(C)(C)CCC1 [Retinol]
  IC50 of cell viability: > 46 µM

## CC(=O)OC/C=C(C)/C=C/C=C(C)/C=C/C1=C(C)CCCC1(C)C [Retinyl acetate]
  IC50 of cell viability: > 46 µM

## CCCCCCCCCCCCCCCC(=O)OC/C=C(C)/C=C/C=C(C)/C=C/C1=C(C)CCCC1(C)C [Retinyl palmitate]
  IC50 of cell viability: > 46 µM

## CCCCCCC(O)C/C=C\CCCCCCCC(=O)O (stereo not given) [Ricinoleic acid]
  IC50 of cell viability: > 46 µM

## CO[C@H]1/C=C/O[C@@]2(C)Oc3c(C)c(O)c4c(c3C2=O)C2=NC3(CCN(CC(C)C)CC3)NC2=C(NC(=O)/C(C)=C\C=C\[C@H](C)[C@H](O)[C@@H](C)[C@@H](O)[C@@H](C)[C@H](OC(C)=O)[C@@H]1C)C4=O [Rifabutin]
  IC50 of cell viability: > 46 µM

## CC(N)C12CC3CC(CC(C3)C1)C2 (stereo not given) [Rimantadine hydrochloride]
  IC50 of cell viability: > 46 µM

## CCC(=O)[C@@]1(C)[C@H](C)C[C@@H]2[C@@H]3CC\C4=C\C(=O)\C=C/[C@@]4(C)[C@H]3[C@H](O)C[C@@]12C [Rimexolone]
  IC50 of cell viability: > 46 µM

## CCCCCOc1ccc(C2SC(=O)NC2=O)cc1OCC (stereo not given) [Risarestat]
  IC50 of cell viability: > 46 µM

## CCCOC(=O)c1ccc(N)cc1 [Risocaine]
  IC50 of cell viability: > 46 µM

## CC/1=C(\CCN2CCC(CC2)=C(C3=CC=C(F)C=C3)C4=CC=C(F)C=C4)C(=O)N/5\C=C/SC5=N1 [Ritanserin]
  IC50 of cell viability: > 46 µM

## C[C@H](NCCc1ccc(O)cc1)[C@@H](O)c1ccc(O)cc1 [Ritodrine hydrochloride]
  IC50 of cell viability: > 46 µM

## CC(C)c1nc(CN(C)C(=O)NC(C(=O)NC(Cc2ccccc2)CC(O)C(Cc2ccccc2)NC(=O)OCc2cncs2)C(C)C)cs1 (stereo not given) [Ritonavir]
  IC50 of cell viability: > 46 µM

## CC(C)c1nc(CN(C)C(=O)N[C@H](C(=O)N[C@@H](Cc2ccccc2)C[C@H](O)[C@H](Cc2ccccc2)NC(=O)OCc2cncs2)C(C)C)cs1 [Ritonavir]
  IC50 of cell viability: > 46 µM

## Cc1cccc(C)c1N(CCCc1cccnc1)C(=O)[C@@H](C)N [Ro 22-9194]
  IC50 of cell viability: > 46 µM

## c1ccc(C2(N3CCCC3)CCCCC2)cc1 [Rolicyclidine]
  IC50 of cell viability: > 46 µM

## COc1ccc([C@@H]2CNC(=O)C2)cc1OC1CCCC1 [Rolipram]
  IC50 of cell viability: > 46 µM

## CN(C)[C@@H]\1[C@@H]2C[C@H]3\C(=C(\O)[C@@]2(O)C(=O)\C(=C1O)C(=O)NCN4CCCC4)C(=O)C5=C(C=CC=C5O)[C@@]3(C)O [Rolitetracycline]
  IC50 of cell viability: > 46 µM

## Cc1nc(-c2ccc(Cl)cc2)oc1COC(C)(C)C(=O)O [Romazarit]
  IC50 of cell viability: > 46 µM

## CC(=O)O[C@H](C)OC(=O)[C@@H](C)c1ccc(-c2ccccc2)c(F)c1 [Ropiopn]
  IC50 of cell viability: > 46 µM

## CC[C@H]1OC(=O)C[C@@H](O)[C@H](C)[C@@H](O[C@@H]2O[C@H](C)C[C@H](N(C)C)[C@@H]2O)[C@@H](CC=O)C[C@@H](C)C(=O)/C=C\[C@]2(C)O[C@H]2[C@@H]1C [Rosaramicin]
  IC50 of cell viability: > 46 µM

## O=C([O-])c1c(Cl)c(Cl)c(Cl)c(Cl)c1-c1c2cc(I)c(=O)c(I)c-2oc2c(I)c([O-])c(I)cc12 [Rose Bengal sodium]
  IC50 of cell viability: > 46 µM

## O=[N+]([O-])c1cc([As](=O)(O)O)ccc1O [Roxarsone]
  IC50 of cell viability: > 46 µM

## OC1=CC2=C([NH]C=C2CCCCN3CC\C(=C/C3)C4=CC=CC=C4)C=C1 [Roxindole hydrochloride]
  IC50 of cell viability: > 46 µM

## CC[C@@H]1OC(=O)[C@H](C)[C@H](O[C@H]2C[C@](C)(OC)[C@H](O)[C@H](C)O2)[C@H](C)[C@H](O[C@@H]2O[C@@H](C)C[C@@H](N(C)C)[C@H]2O)[C@](C)(O)C[C@H](C)/C(=N/OCOCCOC)[C@H](C)[C@H](O)[C@]1(C)O [Roxithromycin]
  IC50 of cell viability: > 46 µM

## CC[C@H]1OC(=O)[C@H](C)[C@@H](OC2CC(C)(OC)C(O)C(C)O2)[C@H](C)[C@@H](OC2OC(C)CC(N(C)C)C2O)[C@](C)(O)C[C@@H](C)/C(=N\OCOCCOC)[C@H](C)[C@@H](O)[C@]1(C)O (stereo not given in full) [Roxithromycin]
  IC50 of cell viability: > 46 µM

## C[C@@H]1O[C@@H](OC[C@H]2O[C@@H](Oc3c(-c4ccc(O)c(O)c4)oc4cc(O)cc(O)c4c3=O)[C@H](O)[C@@H](O)[C@@H]2O)[C@H](O)[C@H](O)[C@H]1O [Rutin]
  IC50 of cell viability: > 46 µM

## C[C@H](N)C(=O)c1ccccc1 [S(-)-Cathinone hydrochloride]
  IC50 of cell viability: > 46 µM

## CCN(CC)C(=O)N[C@@H]1C=C2c3cccc4[nH]cc(c34)C[C@H]2N(C)C1 [S(-)-LISURIDE]
  IC50 of cell viability: > 46 µM

## CCN1CCC[C@H]1CNC(=O)c1c(O)c(Cl)cc(Cl)c1OC [S(-)-RACLOPRIDE]
  IC50 of cell viability: > 46 µM

## CCc1cc(Cl)c(OC)c(C(=O)NC[C@H]2CCCN2CC)c1O [S(-)Eticlopride hydrochloride]
  IC50 of cell viability: > 46 µM

## CN[C@H](C)Cc1ccccc1 [S-(+)-Methamphetamine]
  IC50 of cell viability: > 46 µM

## C=CCC1([C@@H](C)CCC)C(=O)NC(=O)NC1=O [S-(-)-Secobarbital]
  IC50 of cell viability: > 46 µM

## CCOC(=O)/C=C(C)/C=C/CC(C)CCCC(C)C (stereo not given) [S-HYDROPRENE]
  IC50 of cell viability: > 46 µM

## CC(/C=C/C=C(\C)C(=O)O[C@@H]1O[C@H](CO[C@@H]2O[C@H](CO)[C@@H](O)[C@H](O)[C@H]2O)[C@@H](O)[C@H](O)[C@H]1O)=C\C=C\C=C(C)\C=C\C=C(/C)C(=O)O[C@@H]1O[C@H](CO[C@@H]2O[C@H](CO)[C@@H](O)[C@H](O)[C@H]2O)[C@@H](O)[C@H](O)[C@H]1O [SAFFRON]
  IC50 of cell viability: > 46 µM

## CC(CCc1ccc2c(c1)OCO2)NN (stereo not given) [SAFRAZINE HYDROCHLORIDE]
  IC50 of cell viability: > 46 µM

## CC(C)(C)NCC(O)c1ccc(O)c(CO)c1 (stereo not given) [SALBUTAMOL]
  IC50 of cell viability: > 46 µM

## OCc1ccccc1O [SALICYL ALCOHOL]
  IC50 of cell viability: > 46 µM

## NC(=O)c1ccccc1O [SALICYLAMIDE]
  IC50 of cell viability: > 46 µM

## O=C(Oc1ccccc1C(=O)O)c1ccccc1O [SALSALATE]
  IC50 of cell viability: > 46 µM

## Cl.OC(=O)C/1=C/N(C2=CC=C(F)C=C2)C3=C(C=C(F)C(=C3)N4CCNCC4)C1=O [SARAFLOXACIN HYDROCHLORIDE]
  IC50 of cell viability: > 46 µM

## CNCC(=O)NC(CCCNC(=N)N)C(=O)NC(C(=O)NC(Cc1ccc(O)cc1)C(=O)NC(C(=O)NC(Cc1cnc[nH]1)C(=O)N1CCCC1C(=O)NC(C)C(=O)O)C(C)C)C(C)C (stereo not given) [SARALASIN ACETATE]
  IC50 of cell viability: > 46 µM

## COc1cccc(CCc2ccccc2OCC(CN(C)C)OC(=O)CCC(=O)O)c1 (stereo not given) [SARPOGRELATE HYDROCHLORIDE]
  IC50 of cell viability: > 46 µM

## Cc1ccccc1/N=N/c1ccc(/N=N/c2c(O)ccc3ccccc23)c(C)c1 [SCARLET RED]
  IC50 of cell viability: > 46 µM

## C=C1CC[C@H](O)C/C1=C/C=C1\CCC[C@]2(C)[C@@H]([C@H](C)CC[C@@H](O)C(C)(C)O)CC[C@@H]12 [SECALCIFEROL]
  IC50 of cell viability: > 46 µM

## Cc1ncc([N+](=O)[O-])n1CC(C)O (stereo not given) [SECNIDAZOLE]
  IC50 of cell viability: > 46 µM

## O=C/1O[C@@]23CC(/C=C\C2=C1)N4CCCCC34 (stereo not given in full) [SECURININE]
  IC50 of cell viability: > 46 µM

## COC1CC(O[C@H]2/C(C)=C/CC3CC(C[C@]4(CCC(C)C(C5CCCCC5)O4)O3)OC(=O)[C@H]3C=C(C)/C(=N/O)C4OC/C(=C\C=C\[C@@H]2C)[C@@]43O)OC(C)C1O (stereo not given in full) [SELAMECTIN]
  IC50 of cell viability: > 46 µM

## Oc1ccc([C@H]2CNCc3c2ccc(O)c3O)cc1O [SELANDOPAM HYDROCHLORIDE HYDRATE (ZELANDOPAM)]
  IC50 of cell viability: > 46 µM

## C[Se]CC[C@H](N)C(=O)O [SELENOMETHIONINE, L-]
  IC50 of cell viability: > 46 µM

## C[Se]CCC(N)C(=O)O (stereo not given) [SELENOMETHIONINE, SE-75]
  IC50 of cell viability: > 46 µM

## Cc1cc(C)c(/C=C2\C(=O)Nc3ccccc32)[nH]1 [SEMAXANIBUM]
  IC50 of cell viability: > 46 µM

## CC1CCC(NC(=O)N(CCCl)N=O)CC1 (stereo not given) [SEMUSTINE]
  IC50 of cell viability: > 46 µM

## CC1=C(C)C(=O)C(C(CCCCCC(=O)O)c2ccccc2)=C(C)C1=O (stereo not given) [SERATRODAST]
  IC50 of cell viability: > 46 µM

## FCOC(C(F)(F)F)C(F)(F)F [SEVOFLURANE]
  IC50 of cell viability: > 46 µM

## CC(C)CC(N(C)C)C1(c2ccc(Cl)cc2)CCC1.Cl (stereo not given) [SIBUTRAMINE HYDROCHLORIDE]
  IC50 of cell viability: > 46 µM

## CCNc1nc(Cl)nc(NCC)n1 [SIMAZINE]
  IC50 of cell viability: > 46 µM
